Measurements published in US11654196B2, “Dosing regimens for echinocandin class compounds” (priority 2012, dated 2023).
Read-outs that look alike come from different tables or passages of the source. *1 amine or outer side, *2 acyl side, *3 side chain or, on linkers, in order; H or OH if unused. Where a SMILES comes first, the peptide text is derived from it. Bridges are numbered along the chain shown (N, C = ends). [ ]: non-standard residue; d: D form. The star is where a group is joined. pTerphenylCO(4''-OnC5H11) = CCCCCOc1ccc(-c2ccc(-c3ccc(C(=O)*)cc3)cc2)cc1; Orn(4R-OH,5R-OH) = O=C([C@H](C[C@@H](O)[C@@H](O)N[*:3])N[*:1])[*:2]; hTyr(3S-OH,4S-OH) = N[C@H](C(=O)O)[C@H](O)[C@@H](O)c1ccc(O)cc1; Pro(3S-OH,4S-Me) = C[C@H]1CN[C@H](C(=O)O)[C@H]1O; Hyp = O=C(O)[C@@H]1C[C@@H](O)CN1

Experiments:
[1] = Pharmacokinetics following intravenous administration in beagle dogs; assay type: in vivo; conditions: 1.4 mg/kg IV slow bolus
Procedure: Echinocandin class compounds were administered to beagle dogs weighing approximately 6-10 kg. Each compound was dosed at 1.4 mg/kg in aqueous saline (with or without 0.5% Tween) over course of 1-10 minutes. […] The dogs were fasted at least 12 hours prior to each dosing and offered food after the 4-hour blood sample was taken; water was withheld for 1 hour prior to and 4 hours following each dosing event. The dose for each animal was based on its most recent body weight. The test article was injected intravenously via a catheter placed in the cephalic vein as a slow bolus.
Blood was collected via the jugular vein. All blood samples (1 mL each) were collected into K3EDTA tubes. Following blood collection, the samples were immediately inverted several times and were held on wet ice pending centrifugation. The samples were centrifuged within 30 minutes of collection under refrigeration (˜5° C. for 10 minutes at 2000 g) to obtain plasma. The plasma was frozen immediately on dry ice after separation. The plasma samples were stored at approximately ˜70° C. until analysis.
Plasma (100 μL) was precipitated with 400 μL of 0.1% formic acid in acetonitrile containing the internal standard (100 ng/mL pneumocandin). The samples were then capped and vortexed for about 30 seconds followed by centrifugation at 14,000 rpm at room temperature for 10 minutes. Following centrifugation 200 μL of supernatant was transferred to plastic autosampler vials containing 200 μL of 0.1% formic acid in water and vortexed. Samples were then analyzed by LCMSMS.
All pharmacokinetic calculations were performed using WinNonlin version 4.1 (Pharsight Corp) by noncompartmental analysis.

[2] = Stability in dog plasma; assay type: in vitro ADME
Procedure: Stock solutions of compound 22 and anidulafungin were prepared in DMSO at a concentration of 1 mg/mL. Plasma samples were prepared by mixing plasma with 10% volume of 1 M sodium phosphate, pH 7.4, to minimize pH fluctuation, and stock solution to produce plasma samples containing approximately 10,000 ng/mL compound 22 or anidulafungin. For the stability experiments in PBS buffer, plasma was replaced with phosphate buffered saline, pH 7.4. The DMSO concentration was 1% in the final incubation. Multiple individual aliquots (0.5 mL each) were prepared, capped, and incubated at 37° C. At each stability time point, the reaction was stopped by removing the sample from the incubator and adding 0.5 mL of acetonitrile containing internal standard. Samples were centrifuged for approximately 5 minutes at 10000 rpm to precipitate the proteins. Stability was measured in five different matrices (i.e. rat plasma, dog plasma, monkey plasma, human plasma, and PBS). An aliquot (100 μL) of supernatant of each sample was assayed by HPLC. The percentage of anidulafungin and compound 22 remaining at each time point was calculated by dividing the peak area ratio at each time point by the peak area ratio at time zero.

[3] = Circulating half-life in monkey; assay type: in vivo; conditions: assays conducted by applicant
[4] = Dog, literature values; cited from earlier work
[5] = Mouse, literature values; cited from earlier work
[6] = Rat, literature values; cited from earlier work
[7] = Rabbit, literature values; cited from earlier work
[8] = Man, literature values; cited from earlier work
[9] = Dissolution profile of tableted formulation 17; assay type: physicochemical
Procedure: A dissolution study of the tablet of formulation 17 was performed using 500 mL of 100 mM Acetate Buffer pH 5.2 as the medium. The method utilized Apparatus 2 with a paddle speed of 50 rpm, a tablet sinker, and the run time was 60 minutes. […] The HPLC method was a gradient method using an Agilent Zorbax Bonus-RP column (250×4.6 mm) (column temperature of 60° C., wavelength of 300 nm, with Mobile Phase A=33 mM sodium pentanesulfonate pH 4.0 and Mobile Phase B=acetonitrile). The samples were injected neat with an injection volume of 15 μL.

[10] = Pharmacokinetics in chimpanzee, oral dose; assay type: in vivo
Procedure: Pharmacokinetic studies were performed in six adult female chimpanzees. Two chimpanzees received 1-mg/kg IV dose of compound 22 formulated in 5% dextrose (60-minute infusion). Two chimpanzees received 10-mg/kg oral dose of compound 22 formulated in 5% citric acid (oral bolus). Two chimpanzees received 1-mg/kg IV dose of anidulafungin formulated as package label (5% dextrose, 60-minute infusion). Plasma samples were collected from all chimps for 10 days to 22 days. PK curves are depicted in FIGS. 16A, 16B, and 18. All pharmacokinetic calculations were performed using WinNonlin version 4.1 (Pharsight Corp) by noncompartmental analysis.

[11] = Circulating half-life in mouse; assay type: in vivo; conditions: assays conducted by applicant
[12] = Storage stability of solutions and lyophilized formulations (HPLC); assay type: physicochemical; conditions: for Loss in potency: clear vial, ambient light, 4 months

Structure (SMILES): CCCCCOc1ccc(-c2ccc(-c3ccc(C(=O)N[C@H]4C[C@@H](O)[C@@H](O)NC(=O)[C@@H]5[C@@H](O)[C@@H](C)CN5C(=O)[C@H]([C@@H](C)O)NC(=O)[C@H]([C@H](O)[C@@H](O)c5ccc(O)cc5)NC(=O)[C@@H]5C[C@@H](O)CN5C(=O)[C@H]([C@@H](C)O)NC4=O)cc3)cc2)cc1 [Anidulafungin, anidulafungin, reference compound] ({pTerphenylCO(4''-OnC5H11)}-[Orn(4R-OH,5R-OH)]T[Hyp][hTyr(3S-OH,4S-OH)]T[Pro(3S-OH,4S-Me)]; lactam 1-C)
- Mean clearance [1]: 0.785 mL/min/kg
- T1/2 [1]: 11.6 h
- Volume of Distribution [1]: 0.779 L/kg
- AUC ([1]; dog, in vivo, read-out: AUC): 27800 ng·h/mL
- Cmax ([1]; dog, in vivo, read-out: Cmax): 3230 ng/mL
- % remaining ([2]; dog plasma, 37° C., 0 h): 100%
- % remaining ([2]; dog plasma, 37° C., 1 h): 100%
- % remaining ([2]; dog plasma, 37° C., 2 h): 94.8%
- % remaining ([2]; dog plasma, 37° C., 4 h): 77.1%
- % remaining ([2]; dog plasma, 37° C., 8 h): 81.1%
- % remaining ([2]; dog plasma, 37° C., 21 h): 47.2%
- % remaining ([2]; dog plasma, 37° C., 44 h): 14.6%
- Half-life ([3]; in vivo, read-out: Half-life (converted)): 8 h
- Half-life [4]: 15 h
- Half-life [5]: 14 to 20 h
- Half-life [6]: 18 h
- Half-life [7]: 4 to 6 h
- Half-life [8]: 24 to 26 h

Structure (SMILES): CC(=O)[O-].CCCCCOc1ccc(-c2ccc(-c3ccc(C(=O)NC4CC(O)C(OCC[N+](C)(C)C)NC(=O)C5C(O)C(C)CN5C(=O)C(C(C)O)NC(=O)C(C(O)C(O)c5ccc(O)cc5)NC(=O)C5CC(O)CN5C(=O)C(C(C)O)NC4=O)cc3)cc2)cc1 (centres unmarked) [Compound 22]
- AUC [1]: 48700 ng·h/mL
- Cmax [1]: 1570 ng/mL
- Mean clearance [1]: 0.301 mL/min/kg
- T1/2 [1]: 53.1 h
- Volume of Distribution [1]: 1.36 L/kg
- % Compound 22 Dissolved ([9]; tablet of formulation 17, 100 mM acetate buffer pH 5.2, 5 minutes): 23%
- % Compound 22 Dissolved ([9]; tablet of formulation 17, 100 mM acetate buffer pH 5.2, 10 minutes): 48%
- % Compound 22 Dissolved ([9]; tablet of formulation 17, 100 mM acetate buffer pH 5.2, 15 minutes): 62%
- % Compound 22 Dissolved ([9]; tablet of formulation 17, 100 mM acetate buffer pH 5.2, 30 minutes): 93%
- % Compound 22 Dissolved ([9]; tablet of formulation 17, 100 mM acetate buffer pH 5.2, 45 minutes): 96%
- % Compound 22 Dissolved ([9]; tablet of formulation 17, 100 mM acetate buffer pH 5.2, 60 minutes): 97%
- % remaining ([2]; dog, plasma, 0 h): 100%
- % remaining ([2]; dog, plasma, 1 h): 97.9%
- % remaining ([2]; dog, plasma, 2 h): 107%
- % remaining ([2]; dog, plasma, 4 h): 119%
- % remaining ([2]; dog, plasma, 8 h): 94.0%
- % remaining ([2]; dog, plasma, 21 h): 87.3%
- % remaining ([2]; dog, plasma, 44 h): 78.6%
- Oral bioavailability ([10]; chimpanzees, 10-mg/kg oral bolus in 5% citric acid): 4.5%
- Plasma half-life (PO) ([10]; chimpanzees, 10-mg/kg oral bolus in 5% citric acid, mean of 2 chimps): 99 h
- Oral bioavailability used to calculate human circulating concentrations ([10]; values based upon chimpanzee studies): 5%
- Half-life [11]: 44 to 71 h
- Half-life [3]: 40 h
- Loss in potency ([12]; 5% Dextrose Solution (1.3 and 1.1 mg/mL) and 0.9% Sterile Saline Solution (1.3 mg/mL), room temperature): less than 5%
- Loss in potency ([12]; accelerated aging at 40° C., 5% Dextrose, 20 mM Acetate Buffer pH 4.5, 20 mM Lactate pH 6.0 (3.3 mg/mL)): less than 5%
- Stability upon storage ([12]; as a solid or in solution): commercially acceptable stability
